For orientation: Ki means a measure of affinity in units of concentration, obtained from inhibition or displacement. Higher therefore signals a looser hold on the target. For orientation: IC50 means the concentration needed to halve the response being measured. Low values mean greater potency, high ones weaker potency.

The values below come from ChEMBL document CHEMBL1132641, “Structure-activity relationships for a class of inhibitors of purine nucleoside phosphorylase” (J Med Chem, 1999).

Holding throughout (test): biochemical
The target of experiment [1] is T1, Purine nucleoside phosphorylase (Bos taurus, UniProt P55859).
T1 sequence (P55859 whole entry): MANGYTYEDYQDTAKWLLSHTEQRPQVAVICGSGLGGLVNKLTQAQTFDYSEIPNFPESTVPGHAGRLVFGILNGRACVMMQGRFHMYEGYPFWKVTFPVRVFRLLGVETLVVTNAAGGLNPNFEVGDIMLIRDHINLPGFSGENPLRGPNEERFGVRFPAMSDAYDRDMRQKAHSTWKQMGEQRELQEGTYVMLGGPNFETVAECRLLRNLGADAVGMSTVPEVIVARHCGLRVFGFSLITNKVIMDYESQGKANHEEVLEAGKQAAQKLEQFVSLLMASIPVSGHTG
Description: (§1) Inhibitory activity against calf spleen purine nucleoside phosphorylase (PNP) using inosine as substrate at a concentration of 10 uM.

For experiment [2], the target named is T1, Purine nucleoside phosphorylase. This is another data set of the same source.
Description: as §1
For experiment [3] the target is unchanged. The source holds these as a separate data set.
Description: Inhibitory activity against calf spleen purine nucleoside phosphorylase (PNP) using 2-amino-6-mercapto-7-methyl purine ribonucleoside (MESG) as substrate.

Consider `Cc1nc2c(O)[nH]c(N)nc-2c1Cc1ccccc1`, for which the Ki in experiment [1] worked out at 10300 nM; in experiment [3], 67500 nM. This compound displayed a 50% inhibitory concentration (IC50) in experiment [2] of 20200 nM.
As for `Nc1nc2c(Cc3ccncc3)c[nH]c2c(=O)[nH]1`, the figures for the Ki in experiment [1] and in experiment [3] were 25.4 nM and 16.9 nM, respectively. For the same compound, half-maximal inhibition in experiment [2] (IC50) was put at 63.5 nM.
For `Nc1nc2c(CC3CCCS3)c[nH]c2c(=O)[nH]1` (centres undefined), the inhibitory constant (Ki) in experiment [1] stood at 8.5 nM; in experiment [3], 6 nM. This compound also gave an IC50 in experiment [2] of 17.4 nM.
Turning to `Nc1nc2c(Cc3cccnc3)c[nH]c2c(=O)[nH]1` [PELDESINE], the inhibition constant (Ki) is 13.5 nM in experiment [1] and 3.1 nM in experiment [3]. The same compound came in with a half-maximal inhibitory concentration (IC50) in experiment [2] of 27 nM.
`Oc1ncn(Cc2ccccc2)c2ncnc1-2` came in with a Ki in experiment [1] of 24600 nM. In experiment [2], this compound gave a half-inhibitory concentration (IC50) of 49600 nM.
Regarding `Nc1nc(O)c2[nH]c(N)c(CC3CCCCC3)c2n1`, the values for the Ki in experiment [1] and in experiment [3] were 885 nM and 766 nM, respectively. Moreover, the midpoint of inhibition in experiment [2], the IC50, lay at 1470 nM.
In the case of `Nc1nc(O)c2[nH]cc(Oc3ccccc3)c2n1`, the concentration for half-maximal inhibition (IC50) in experiment [2] is 41.5 nM. This counts as double-digit nanomolar.
Still for that read-out and setting: to `Nc1nc2c(Cc3ccc(-c4ccccc4)cc3)c[nH]c2c(=O)[nH]1` belongs 546 nM.
As for `Nc1nc(O)c2[nH]cc(C(CC(=O)O)c3ccccc3)c2n1` (centres undefined), the Ki in experiment [1] was found to be 9 nM; in experiment [3], 61 nM. For the same compound, in experiment [2], the IC50 was 46.8 nM.
Take `Nc1nc(O)c2[nH]cc(C3=CCCCC3)c2n1`: the figures for the inhibition constant (Ki) in experiment [1] and in experiment [3] were 862 nM and 500 nM, respectively. Also, inhibition in experiment [2] was half-maximal at 1970 nM (IC50).
Regarding `Nc1nc(O)c2[nH]cc(Cc3ccc(O)cc3)c2n1`, the Ki in experiment [1] turned out to be 109 nM; in experiment [3], 35 nM. Further, the concentration for half-maximal inhibition (IC50) in experiment [2] is 239 nM.
For `Nc1nc(O)c2[nH]cc(Cc3ccccc3Cl)c2n1`, in that order: 65 nM, 14.4 nM and 103 nM.
In experiment [2], `CC(C)c1ccc(Cc2c[nH]c3c(=O)[nH]c(N)nc23)cc1` displayed an IC50 of 96.6 nM.
Turning to `Oc1[nH]cnc2c(Cc3ccccc3)cnc1-2`, the values for the Ki in experiment [1] and in experiment [3] were 18.7 nM and 5.4 nM, respectively. For the same compound, the IC50 in experiment [2] came out at 24.5 nM.
As to `N#CCC(c1cccnc1)c1cnc2c(O)[nH]cnc1-2` (centres undefined), inhibition in experiment [2] was half-maximal at 38.9 nM (IC50).
Take `CC1CCCC(Cc2c[nH]c3c(=O)[nH]c(N)nc23)C1` (centres undefined): the inhibitory constant (Ki) in experiment [1] is 11.4 nM; in experiment [3] it was 3.3 nM. Further, in experiment [2], inhibition was half-maximal at 19.2 nM (IC50).
For `Nc1nc2c(CC3CCCC3)c[nH]c2c(=O)[nH]1`, the inhibition constant (Ki) in experiment [1] is 9.1 nM; in experiment [3], 6.2 nM. Besides, in experiment [2], the concentration for half-maximal inhibition (IC50) was found to be 20.2 nM.
In experiment [2], `Nc1nc2c(Cc3ccccn3)c[nH]c2c(=O)[nH]1` gave an IC50 of 15.3 nM.
`Nc1nc2c(Cc3cnccc3Cl)c[nH]c2c(=O)[nH]1`: the Ki in experiment [1] came to 66.7 nM; in experiment [3] it was 35.6 nM. Further, the concentration for half-maximal inhibition (IC50) in experiment [2] amounted to 135 nM.
Turning to `Nc1nc2[nH]c(N)nc2c(=O)[nH]1` [8-AMINOGUANINE], the figures for the inhibitory constant (Ki) in experiment [1] and in experiment [3] were 982 nM and 681 nM, respectively. Further, in experiment [2], it took 2300 nM to reach half-maximal inhibition (IC50).
In experiment [2], `N#CCC(c1cccc(Cl)c1)c1c[nH]c2c(=O)[nH]c(N)nc12` (centres undefined) yielded an IC50 of 16.3 nM. Besides, the affinity in experiment [3], expressed as Ki, was 4.6 nM.
In the case of `Nc1nc(O)c2nc(N)n(Cc3cccs3)c2n1`, the Ki in experiment [1] came out at 35.7 nM; in experiment [3] it was 20.7 nM. In experiment [2], the 50% inhibitory concentration (IC50) was 69.4 nM.
As to `Nc1nc2c(Cc3ccc(OCc4ccccc4)cc3)c[nH]c2c(=O)[nH]1`, the inhibition constant Ki in experiment [1] is 37.8 nM; in experiment [3], 20.3 nM. This compound also displayed a 50% inhibitory concentration (IC50) in experiment [2] of 124 nM.
Consider `Nc1nc2c(Cc3cccc(Cl)c3)c[nH]c2c(=O)[nH]1`, for which the figures for the Ki in experiment [1] and in experiment [3] were 18.9 nM and 4.3 nM, respectively. The IC50 in experiment [2] is 25.8 nM.
`Nc1nc(O)c2[nH]cc(Cc3ccsc3)c2n1`: the Ki in experiment [1] worked out at 15.6 nM; in experiment [3], 3.5 nM. Besides, the IC50 in experiment [2] is 22.6 nM.
With `Nc1nc(O)c2[nH]cc(C3CCCCC3)c2n1`, the Ki in experiment [1] amounted to 335 nM; in experiment [3], 333 nM. In experiment [2], this compound had an IC50 of 640 nM.
Take `Nc1nc2c(Cc3ccccc3O)c[nH]c2c(=O)[nH]1`: the values for the inhibition constant (Ki) in experiment [1] and in experiment [3] were 84 nM and 31.8 nM, respectively. This compound also had an IC50 in experiment [2] of 182 nM.
